In brackets after ≈: the same amount, converted by molar mass. Read-outs that look alike come from different tables or passages of the source.
Assays:
[1] = test system: Haemophilus influenzae; assay: MIC, NCCLS broth microdilution, respiratory pathogens; format: cell-based; conditions: H. influenzae
Method: (§1) Minimum inhibitory concentrations (“MICs”) were determined by the NCCLS broth microdilution procedure for susceptibility testing for bacteria that grow aerobically (National Committee for Clinical Laboratory Standards, 1997. Methods for dilution antimicrobial susceptibility tests for bacteria that grow aerobically, 4th ed. Approved standard. NCCLS Document M7-A4. National Committee for Clinical Laboratory Standards, Villanova, Pa.). Stock solutions were prepared on the day of the test and appropriate aliquots were added to cation adjusted Mueller-Hinton broth (CAMHB, DIFCO) or Haemophilus test media. Two-fold serial dilutions were prepared and added to wells in microtiter plates. Final test concentrations ranged from 8 to 0.004 ug/ml. Broth cultures of bacteria inoculated from growth on overnight plates for all test bacteria except Streptococcus pneumoniae and Haemophilus influenzae were incubated at 35° C. and then adjusted to the Kirby Bauer standard and diluted in CAMHB to achieve a final inoculum concentration of approximately 5×10^5 CFU/ml. Inocula for S. pneumoniae and H. influenzae were prepared by directly suspending colonies from an overnight plate, adjusting the turbidity and diluting as above. S. pneumoniae media was supplemented with 3% lysed horse blood. All plates were incubated in ambient air at 35° C. for 20-24 h for S. pneumoniae and Haemophilus influenzae and 16-20 h for all other bacteria.

[2] = test system: Streptococcus pneumoniae; assay: as above; format: cell-based; conditions: S. pneumoniae
Method: as §1

[3] = test system: S. pyogenes; assay: as above; format: cell-based; conditions: Streptococcus pyogenes
Method: as §1

[4] = test system: M. catarrhalis; assay: as above; format: cell-based; conditions: Moraxella catarrhalis
Method: as §1

[5] = test system: male beagle dogs; assay: Cardiovascular safety in telemetered dogs, intravenous infusion; format: in vivo, dog
Text: Four male beagle dogs, obtained from Marshall Farms USA, Inc. (North Rose, N.Y.), were surgically instrumented with telemetry transducers (Data Sciences International, type RL11M2-D70-PCT) to assess arterial blood pressure (ABP) and lead II electrocardiogram (ECG) parameters.
The dosing route was an intravenous infusion jugular vein access). The infusion was accomplished using a CADD Prizm® ambulatory infusion pump attached to a jacket worn by the dog. The dose duration for the intravenous infusion was 30 min for all doses administered, except the last dose (30 mg/kg) where the infusion period was extended to 45 min to accommodate the larger dose volume required for this dose. The vehicle dose and diluent for the test article was 0.05-M sodium citrate in sterile water for injection.
There was one treatment group of four non-naïve dogs and the study was comprised of both pharmacokinetic and telemetry phases, as summarized in the dose administration table for compound (III) (Table 16) below. At least one week was given between dosings to allow clearance of the drug.
For the telemetry phase of the study, collection of hemodynamic and lead II ECG data commenced approximately 30 min prior to dosing and ended approximately 6 h post-dose. Systolic blood pressure (SBP), diastolic blood pressure (DBP), HR, and lead II ECG variables (PR interval, QRS duration, RR interval, and QT interval) were acquired continuously from each animal during each dose day recording session. The QT interval was corrected for variations in HR using the Fridericia's QTc interval (QTcF).
Data acquired following treatment with vehicle or compound (III) were extracted at −10, −5, 0, 10, 20, 30, 35, 45, 60, 90, 150, 270, and 390 min relative to the start dose time. For all blood pressure and ECG parameters, data following treatment with compound (III) were compared to the time-matched vehicle dose data. Statistical comparisons were made using a one-way ANOVA for repeated measures, followed by the Dunnett's post-hoc test when statistical significance was detected with the ANOVA. Changes were considered statistically significant when p<0.05.
A complete visual scan of the ECG waveforms from the vehicle, 11 mg/kg dose, and 15 mg/kg dose of compound (III) was conducted. All waveforms were examined for gross changes in waveform morphology and arrhythmogenesis.

[6] = test system: P. granulosum; assay: MIC, NCCLS Reference Agar Dilution Method for anaerobic bacteria; format: cell-based, Propionibacterium granulosum
Method: Minimum inhibitory concentrations (“MICs”) were determined by the NCCLS Reference Agar Dilution Method (M11-A5, Vol. 21, No. 2) for anaerobic bacteria. A panel of 84 antibiotic-susceptible and resistant strains of Propionibacteria from distinct geographic locations were selected. Following revival from frozen stocks, each strain was purity plated onto Wilkins Chalgren Agar, pH 7.2 (Oxoid, UK), and the appropriate antibiotic resistance/susceptibility phenotype was confirmed by antibiotic disc testing. Each strain was subjected to an agar dilution MIC assay. […] The inocula for each batch of strains were prepared from 7-day old Wilkins Chalgren Agar plate cultures by resuspension of colonies in Wilkins Chalgren Anaerobe broth, pH 7.2 (Oxoid, UK) to an optical density (OD600) of 0.2±0.02. The inoculum (1.0-2.0 μL) for each strain was applied to a Wilkins Chalgren Agar MIC plate in a grid pattern using a Multipoint Inoculator (Denley, UK). All agar plates were incubated at 37° C. for 3 days under anaerobic conditions in AnaeroPack 7 liter rectangular jars (Mitsubishi Gas Chemical Company, Inc., Japan).

[7] = Pharmacokinetics in the mouse, plasma and lung tissue; format: in vivo; conditions: oral gavage 10 mg/kg
Method: The pharmacokinetics of compounds of formula (VIII) and compounds of formula (II) and (III) were measured in the mouse. Compounds were administered either intravenously (i.v.) at 1 mg/kg, or per oral gavage (p.o.) at 10 mg/kg. Plasma samples were taken and analyzed by LC/MS-MS. For lung tissue pharmacokinetics, lungs were removed and homogenized, followed by analyzis by LC/MS-MS.

[8] = genotype sensitive, read-out: MIC50
[9] = genotype sensitive, read-out: MIC90
[10] = dog, intravenous 11 and 15 mg/kg

**Q.** With `CC1CC(N(C)C)C(O)C(O[C@@H]2[C@@H](C)C(=O)[C@](C)(F)C(=O)O[C@H](CCF)[C@@]3(C)OC(=O)N[C@@H]3[C@@H](C)C(=O)[C@H](C)C[C@@]2(C)OC/C=C/c2ccc3cccnc3c2)O1` (some centres unmarked) [Compound (III), 6-O-(1-(7-quinolyl)-3-propenyl)-11-amino-11-deoxy-3-(descladinosyl)-3-oxo-2,15-difluoroerythromycin A-11,12-cyclic carbamate] as the compound, how does the MIC50 ([1]; resistant) read?
**A.** > 8 µg/mL

**Q.** What about the MIC90 ([1]; resistant) of the same compound?
**A.** > 8 µg/mL

**Q.** And the MIC50 ([1]; sensitive)?
**A.** 2 µg/mL (≈ 2.49 µM)

**Q.** What about the MIC90 ([1]; sensitive) of the same compound?
**A.** 4 µg/mL (≈ 4.99 µM)

**Q.** What about the MIC50 ([2]; 20 h, genotype ermB + mef) of the same compound?
**A.** 0.5 µg/mL

**Q.** And the MIC50 ([2]; genotype ermB)?
**A.** 0.12 µg/mL (≈ 0.15 µM)

**Q.** And the MIC90 ([2]; genotype ermB)?
**A.** 0.12 µg/mL (≈ 0.15 µM)

**Q.** What about the MIC90 ([2]; genotype ermB + mef) of the same compound?
**A.** 1 µg/mL

**Q.** And the MIC50 ([2]; genotype mef, read-out: MIC50)?
**A.** 0.25 µg/mL (≈ 0.312 µM)

**Q.** What about the MIC90 ([2]; genotype mef, read-out: MIC90) of the same compound?
**A.** 0.25 µg/mL (≈ 0.312 µM)

**Q.** What about the MIC50 [2, 8] of the same compound?
**A.** 0.03 µg/mL (≈ 0.0374 µM)

**Q.** And the MIC90 [2, 9]?
**A.** 0.03 µg/mL (≈ 0.0374 µM)

**Q.** And the MIC50 ([3]; genotype ermB)?
**A.** 0.12 µg/mL (≈ 0.15 µM)

**Q.** What about the MIC90 ([3]; genotype ermB) of the same compound?
**A.** 1 µg/mL (≈ 1.25 µM)

**Q.** What about the MIC50 ([3]; genotype mef, read-out: MIC50) of the same compound?
**A.** 0.12 µg/mL (≈ 0.15 µM)

**Q.** What about the MIC90 ([3]; genotype mef, read-out: MIC90) of the same compound?
**A.** 0.12 µg/mL (≈ 0.15 µM)

**Q.** And the MIC50 [3, 8]?
**A.** 0.06 µg/mL (≈ 0.0748 µM)

**Q.** And the MIC90 [3, 9]?
**A.** 0.06 µg/mL (≈ 0.0748 µM)

**Q.** What about the MIC50 [4] of the same compound?
**A.** 0.12 µg/mL (≈ 0.15 µM)

**Q.** And the MIC90 [4]?
**A.** 0.12 µg/mL (≈ 0.15 µM)

**Q.** What about the “effect on mean HR” value ([5]; dog, intravenous 11 mg/kg) of the same compound?
**A.** no effect

**Q.** And the “effect on the QRS duration” value ([5]; dog, intravenous 11 mg/kg)?
**A.** no effect

**Q.** And the “effect on mean HR” value ([5]; dog, intravenous 15 mg/kg, at the 90 and 390 time points)?
**A.** Significant (p<0.05) decreases in mean HR

**Q.** What about the “effect on QTcF” value ([5]; dog, intravenous 30 mg/kg, 35 to 90 min postdose, vs time-matched vehicle) of the same compound?
**A.** lengthening of the QTcF interval

**Q.** What about the “effect on the PR interval” value ([5]; dog, intravenous 30 mg/kg, 150 to 390 min, p<0.05 at 390 min) of the same compound?
**A.** increase in the PR interval

**Q.** What about the “effect on HR” value ([5]; dog, intravenous 30 mg/kg, 390 min postdose) of the same compound?
**A.** statistically significant (p<0.05) reduction in the HR

**Q.** What about the “ABP parameters (SBP, DBP, MAP)” value ([5]; dog, intravenous 11, 15, and 30 mg/kg, during and up to 150 min after infusion) of the same compound?
**A.** remained relatively unchanged

**Q.** What about the “effect on the QT interval relative to the vehicle control” value ([5]; dog, intravenous 11, 15, or 30 mg/kg) of the same compound?
**A.** no significant effects

**Q.** And the “effect on QTcF” value [5, 10]?
**A.** no significant effects

**Q.** And the “effect on the PR interval” value [5, 10]?
**A.** No significant effects

**Q.** What about the “waveform morphology or ECG rhythm” value ([5]; dog, intravenous 11 or 15 mg/kg) of the same compound?
**A.** no abnormalities

**Q.** What about the “effect on the QRS duration” value ([5]; dog, intravenous 15 and 30 mg/kg, pre-drug baseline also lower) of the same compound?
**A.** Significant (p<0.05) decreases in QRS duration

**Q.** What about the RR interval ([5]; dog, intravenous, study period) of the same compound?
**A.** remained relatively unchanged

**Q.** And the “heart rate-corrected QT interval (QTc), FIG. 6” value ([5]; male beagle dogs, intravenous infusion 11 mg/kg or 15.8 mg/kg over 30 minutes)?
**A.** No significant increase in QTc

**Q.** And the “effect relative to vehicle” value ([5]; telemetered dogs, 30 mg/kg)?
**A.** no significant effect

**Q.** And the “effects on cardiac parameters, including QT interval” value ([5]; telemetered dogs, intravenous infusion up to 15 mg/kg)?
**A.** no effects

**Q.** And the MIC range ([6]; marker RNA 2058, phenotype EryR)?
**A.** 8 µg/mL (≈ 9.98 µM)

**Q.** And the MIC range ([6]; marker RNA 2059, phenotype EryR)?
**A.** 0.125 to 2 µg/mL

**Q.** What about the MIC range ([6]; marker ermX, phenotype EryR) of the same compound?
**A.** 4 to 32 µg/mL

**Q.** And the MIC range ([6]; marker none, phenotype none)?
**A.** 0.06 µg/mL (≈ 0.0748 µM)

**Q.** And the “Lung AUC” value ([7]; mouse lung tissue)?
**A.** 45.9 ug/mL-h

**Q.** What about the “Lung Cmax” value ([7]; mouse lung tissue) of the same compound?
**A.** 8700 ng/mL

**Q.** What about the AUC ([7]; mouse plasma) of the same compound?
**A.** 16200 ng·h/mL

**Q.** And the Cmax ([7]; mouse plasma)?
**A.** 3000 ng/mL

— US7595300B2, “7-quinolyl ketolide antibacterial agents” (priority 2005, dated 2009)
